In one data set the test system is PGRN(588–593) peptide. Description: UV-absorption titration of BVFP with PGRN(588–593) peptide. The conditions noted are these: 20 μM BVFP, PGRN(588–593) peptide titrated. Format: binding, human. Here is the method:
Stock solutions of compound BVFP (20 mM) and PGRN(588–593) peptide (12.96 mM) were prepared in DMSO and water, respectively. For the UV absorption experiment, both components were diluted to give final concentrations of 20 μM BVFP and 324 μM peptide. The interaction between BVFP and the PGRN(588–593) peptide was monitored by scanning over the UV absorbance range of 200–800 nm on a Cary 3 Bio UV–visible spectrophotometer (Varian), as a small amount of KKGRN peptide (0.1 equivalence/1 μl per addition) was titrated into the 20 μM BVFP sample. In addition to baseline correction with DMSO, a control titration experiment using water in place of the PGRN(588–593) peptide was performed under identical conditions in order to correct for potential spectral changes owing to sample dilution.

The subject of data set [1] is SORT1-mediated PGRN endocytosis. Description: Quantitative DyL-rPGRN endocytosis assay in COS-1^SORT1 cells. To be noted: COS-1^SORT1, 5 μM binder pre-incubated 1 h with rPGRN, 1 h endocytosis. It counts as cell-based, human. On the procedure:
COS-1 cells seeded on a 96-well black plate 1 day before were transfected with pCMV-SORT1 vector. After 24 h, cells were treated with fluorescence-tagged rPGRN (DyL-rPGRN) pre-labeled by DyLight™ 594 antibody labeling kit (Thermo Scientific). The DyL-rPGRN was diluted in OptiMEM to tested concentrations and incubated with the cells for 1 h for endocytosis. The cells were then washed with cold PBS and then fixed by 4% paraformaldehyde. After washing twice, each well was filled with PBS prior scanning. The total PGRN fluorescent signal from the cells was obtained by a plate reader with 593/618 nm (Ex/Em) settings. The endocytosis signal was normalized by the total nuclei signal obtained by staining with a Hoechst 33342 dye. Baseline endocytosis signal was defined as a signal from medium-only-treated cells, whereas the 100% endocytosis level was set as the signal obtained from cells treated with 50 nM DyL-rPGRN. For testing SORT1 ligands, DyL-rPGRN and the peptide were added simultaneously to the cells. For testing of PGRN binders, the binder was pre-incubated with DyL-rPGRN for 1 h before adding to the cells. For qualitative analysis, images from each well were captured by BD Pathway 855 system using a 20× magnification setting.

The next data set concerns SORT1–PGRN interaction. Description: MSD-based SORT1–PGRN interaction assay. Format: biochemical, human. The conditions noted are these: BVFP 20 and 200 μM pre-incubated 30 min with 200 nM N-rP. On the procedure:
M17 cells were transfected with pCMV-SORT1-Flag for 48 h. Then, the cell lysate was harvested by the same method used in the co-immunoprecipitation assay. Expression of SORT1-Flag protein was confirmed by western blot. MSD plate was first coated with the Flag M2 antibody (Sigma). Following an overnight incubation at 4°C, the plate was blocked for 2 h and then washed prior to addition of 5 µg/well of lysate protein containing SORT1-Flag protein. After overnight incubation at 4°C, it was then washed and added with 200 nM of either N-6His- or C-6His-tagged rPGRN pre-incubated with either vehicle, 20 µM or 200 µM of BVFP, for 30 min at room temperature. Then plate was then incubated for 2 h, washed and incubated with a mixture of PCDGF antibody and a SULFO-TAG-labeled anti-rabbit IgG antibody for 2 h. After final wash, the plate was read by the MSD Sector Imager 2400.

In data set [2] the test system is PGRN endocytosis in WT-hESCs. In words: DyL-rPGRN endocytosis in wild-type hESCs. It counts as cell-based. To be noted: Homo sapiens; WT-hESC, BVFP, same conditions as COS-1^SORT1 (5 μM). The source says:
(§1) To determine whether BVFP, when bound to PGRN, disrupts full-length PGRN and SORT1 binding, we devised a SORT1-dependent rPGRN precipitation assay utilizing the Meso-Scale Discovery (MSD) system (Supplementary Material, Fig. S4A and B). […] To include a higher-affinity PGRN588–593 motif binder as a positive control, an antibody targeting the motif, PGRN-CT antibody, was made for validating the approach (Fig. 5F). […] First, we found SORT1 was abundantly expressed in the wild-type hESCs (Fig. 5H). Similar to the results from COS-1^SORT1 cells, BVFP and PGRN-CT antibody inhibited endocytosis of DyL-rPGRN by 22 and 39%, respectively, under the same experimental conditions in wild-type hESCs (Fig. 5I left).
(§2) COS-1 cells seeded on a 96-well black plate 1 day before were transfected with pCMV-SORT1 vector. After 24 h, cells were treated with fluorescence-tagged rPGRN (DyL-rPGRN) pre-labeled by DyLight™ 594 antibody labeling kit (Thermo Scientific). The DyL-rPGRN was diluted in OptiMEM to tested concentrations and incubated with the cells for 1 h for endocytosis. The cells were then washed with cold PBS and then fixed by 4% paraformaldehyde. After washing twice, each well was filled with PBS prior scanning. The total PGRN fluorescent signal from the cells was obtained by a plate reader with 593/618 nm (Ex/Em) settings. […]

Another data set concerns the target PGRN588–593 peptide (Homo sapiens, UniProt P28799). Description: Epic biochemical binding assay (resonant waveguide grating). The conditions noted are these: PGRN588–593 peptide immobilized; PBS with 5% DMSO; 30 min binding; n = 4. The source says: page 6: SUPPLEMENTARY METHODS AND RESULTS Epic(R) biochemical assay and compound library screen Essentially, the Epic® is a spectrophotometric reader that uses a resonant waveguide grating detection mechanism to detect biochemical interactions (Fig.5A). In brief, the waveguide grating biosensor in each well of the 384-well assay plate intercepts broadband light and measures changes in resonant wavelengths (in picometers, pm) when a ligand binds to the target protein immobilized on the biosensor. To identify chemical binders of the PGRN588-593 peptide, we immobilized the peptide onto the biosensor surface of Epic® assay plates using an amine- coupling method, and screened 4,800 compounds. For immobilization, 150 µg/ml peptide diluted in a 20 mM sodium acetate buffer, pH 5, was added to the assay plate to incubate for overnight at 4 °C. The plate was then washed in binding buffer (PBS with 5% DMSO) for three times and equilibrated in the binding buffer for 6 h in the Epic® carousal. During the equilibration period, compounds from the library stock plate (CNS-set compound library from Chembridge®) were diluted to 50 µM in binding buffer. Each compound was tested in quadruplicate. After the equilibration, a Baseline Reading was acquired by the Epic® spectrophotometer. […] After mixing and a 30 min ‘binding’ period, a Final Reading was acquired. […]

The subject of data set [3] is PGRN endocytosis in SORT1^KO-hESCs. Description: DyL-rPGRN endocytosis in SORT1^KO-hESCs. Format: cell-based, human. The conditions noted are these: SORT1^KO-hESC.
Source text: as §1, §2

Another data set deals with GRN expression. The conditions noted are these: HDAC inhibitor; cited from earlier work. The source says: While new strategies designed to upregulate PGRN levels have emerged, challenges remain in terms of limiting off-target effects. […] However, because HDAC and V-ATPase inhibitors can potentially affect a wide-range of genes at transcriptional and po ...
For another data set, the system named is SORT1. In words: PGRN endocytosis in M17 cells overexpressing SORT1. It counts as cell-based. The conditions noted are these: M17 cells overexpressing SORT1, after EL reaction. On the procedure:
M17 cells seeded in 12-well culture plates (western blot) or on glass coverslips in 24-well culture plate (immunofluorescence) were transfected with pEGFP-N1 (Clontech) or pCMV-SORT1 (OriGene) vectors. Next day, the cells were changed into serum-free medium 1 h before addition of rPGRN (500 ng/ml) and treated for 60 min. The cells were then put on ice and washed with cold PBS. For western blot, cells were lysed in cold M-Per protein extraction buffer followed by standard procedures as mentioned. For immunofluorescence analyses, cells were fixed in 4% paraformaldehyde solution followed by PBS washes. The cells were then incubated in blocking buffer (PBS, 5% goat serum, 0.1% saponin) for 1 h at room temperature followed by incubation in primary antibody overnight at 4°C. The cells were incubated with secondary antibodies (1:1000) for 1 h at room temperature. The coverslips were then mounted onto slides and waited overnight before analysis. Image analysis was performed by Zeiss LSM 510 META confocal microscope using 60× magnification setting.

The next data set concerns elastase. In words: Elastase digestion of rPGRN in cell culture media. Format: in vitro ADME. To be noted: in vitro reaction with EL in culture media; compared with WT rPGRN, western blot. Here is the method:
PGRN, SORT1, GFP, GAPDH and β-actin proteins were analyzed using 10% Tris–glycine polyacrylamide gel by SDS–PAGE. After electrophoresis, proteins on gel were transblotted to PVDF membranes followed by standard immunoblotting protocols.

The inhibition is the relative decrease from the control value, in per cent. As usually defined, the Kd is the constant that tells how readily two partners part at equilibrium. Lower therefore signals a tighter complex. `O=c1nc(C=Cc2cccc(Br)c2)cc(C(F)(F)F)[nH]1` [BVFP, 4-[2-(3-bromophenyl)vinyl]-6-(trifluoromethyl)-2(1H)-pyrimidinone]: in the data set with PGRN(588–593) peptide, the “UV-absorption change upon peptide titration” value is “shift in the ultraviolet(UV)-absorption spectra of BVFP and distinct changes of absorption intensities”; the isosbestic point was 313 nm. For the same molecule, the “inhibition of DyL-rPGRN endocytosis” value in [1] is reported as 23%. Also, in the data set with SORT1–PGRN interaction, the “inhibition of rPGRN binding to immobilized SORT1” value is “dose-dependent inhibition of rPGRN binding to immobilized SORT1”. At 5 µM the inhibition in data set [2] was 22%. This molecule also gave a Kd on PGRN588–593 peptide of 20 µM. In data set [3], the “effect on DyL-rPGRN endocytosis” value is reported as “no effect on DyL-rPGRN endocytosis”.

Turning to `O=C(CCCCCCC(=O)Nc1ccccc1)NO` [suberoylanilide hydroxamic acid], the GRN expression entry in the data set on GRN expression is “enhancer of GRN expression”.

B1: A588G-rPGRN: rPGRN with Ala-to-Gly mutation at the A588 elastase cleavage site (protein)
chain: TRCPDGQFCPVACCLDPGGASYSCCRPLLDKWPTTLSRHLGGPCQVDAHCSAGHSCIFTVSGTSSCCPFPEAVACGDGHHCCPRGFHCSADGRSCFQRSGNNSVGAIQCPDSQFECPDFSTCCVMVDGSWGCCPMPQASCCEDRVHCCPHGAFCDLVHTRCITPTGTHPLAKKLPAQRTNRAVALSSSVMCPDARSRCPDGSTCCELPSGKYGCCPMPNATCCSDHLHCCPQDTVCDLIQSKCLSKENATTDLLTKLPAHTVGDVKCDMEVSCPDGYTCCRLQSGAWGCCPFTQAVCCEDHIHCCPAGFTCDTQKGTCEQGPHQVPWMEKAPAHLSLPDPQALKRDVPCDNVSSCPSSDTCCQLTSGEWGCCPIPEAVCCSDHQHCCPQGYTCVAEGQCQRGSEIVAGLEKMPARRASLSHPRDIGCDQHTSCPVGQTCCPSLGGSWACCQLPHAVCCEDRQHCCPAGYTCNVKARSCEKEVVSAQPATFLARSPHVGVKDVECGEGHFCHDNQTCCRDNRQGWACCPYRQGVCCADRRHCCPAGFRCAARGTKCLRREAPRWDAPLRDPGLRQLL
modifications: left off: His6, end not stated, state not stated
notes: rPGRN with Ala-to-Gly mutation at the A588 elastase cleavage site
As for B1, the “uptake after elastase treatment” value in the data set on SORT1 is recorded as “endocytosed by cells to a similar extent compared with no EL control”. The “resistance to elastase (residual full-length protein in medium)” value with elastase is “more resistant to EL activity”.
